Assays:
[1] = system: barnyard grass; assay: Test Example 3: herbicidal effect by foliage application, Wagner pot (Table 18, symbol H); type: in vivo, barnyard grass (Echinochloa crus-galli); details: 320 g/ha
Outline: (§1)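 Plants were sown in alluvial soil held under 0.1–0.5 cm standing water and grown 14 days in a greenhouse at 25–30 °C. An emulsifiable formulation, water-diluted to the set dose, was then sprayed onto the foliage, and effects were scored three weeks later using previously defined criteria.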

[2] = system: Chinese sprangletop; assay: Test Example 3: herbicidal effect by foliage application, Wagner pot (Table 18, symbol D); type: in vivo, chinese sprangletop (Leptochloa chinensis); details: 320 g/ha
Outline: as §1

[3] = system: rice flat sedge; assay: Test Example 3: herbicidal effect by foliage application, Wagner pot (Table 18, symbol E); type: in vivo, rice flat sedge (Cyperus iria); details: 320 g/ha
Outline: as §1

[4] = system: southern crabgrass; assay: Test Example 5: herbicidal effect by foliage application, plastic box (Table 20, symbol F); type: in vivo, southern crabgrass (Digitaria ciliaris)
Outline: (§2)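 Plants were sown into sterilized diluvial soil under about 1.5 cm cover and kept in a greenhouse at 25° C. to 30° C. Fourteen days on, foliage received an even spray of the diluted emulsion. Herbicidal or crop effect was judged three weeks afterwards.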

[5] = system: green foxtail; assay: Test Example 5: herbicidal effect by foliage application, plastic box (Table 20, symbol G); type: in vivo, green foxtail (Setaria viridis)
Outline: as §2

[6] = system: barnyard grass; assay: Test Example 5: herbicidal effect by foliage application, plastic box (Table 20, symbol H); type: in vivo, barnyard grass (Echinochloa crus-galli)
Outline: as §2

[7] = system: wild oat; assay: Test Example 5: herbicidal effect by foliage application, plastic box (Table 20, symbol I); type: in vivo, wild oat (Avena fatua)
Outline: as §2

[8] = system: blackgrass; assay: Test Example 5: herbicidal effect by foliage application, plastic box (Table 20, symbol J); type: in vivo, blackgrass (Alopecurus myosuroides)
Outline: as §2

[9] = system: Italian ryegrass; assay: Test Example 5: herbicidal effect by foliage application, plastic box (Table 20, symbol K); type: in vivo, Italian ryegrass (Lolium multiflorum)
Outline: as §2

[10] = system: windgrass; assay: Test Example 5: herbicidal effect by foliage application, plastic box (Table 20, symbol L); type: in vivo, windgrass (Apera spica-venti)
Outline: as §2

[11] = system: velvetleaf; assay: Test Example 5: herbicidal effect by foliage application, plastic box (Table 20, symbol M); type: in vivo, velvetleaf (Abutilon theophrasti)
Outline: as §2

[12] = system: redroot pigweed; assay: Test Example 5: herbicidal effect by foliage application, plastic box (Table 20, symbol N); type: in vivo, redroot pigweed (Amaranthus retroflexus); details: 320 g/ha, foliage application after 14-day growth, evaluated three weeks after application
Outline: as §2

[13] = system: lambsquarters; assay: Test Example 5: herbicidal effect by foliage application, plastic box (Table 20, symbol O); type: in vivo, lambsquarters (Chenopodium album)
Outline: as §2

[14] = system: chickweed; assay: Test Example 5: herbicidal effect by foliage application, plastic box (Table 20, symbol P); type: in vivo, common chickweed (Stellaria media); details: 320 g/ha, foliage application after 14-day growth, evaluated three weeks after application
Outline: as §2

[15] = system: false cleavers; assay: Test Example 5: herbicidal effect by foliage application, plastic box (Table 20, symbol Q); type: in vivo, false cleavers (Galium spurium)
Outline: as §2

[16] = system: persian speedwell; assay: Test Example 5: herbicidal effect by foliage application, plastic box (Table 20, symbol R); type: in vivo, Persian speedwell (Veronica persica)
Outline: as §2

[17] = system: southern crabgrass; assay: Test Example 4: herbicidal effect by soil treatment (Table 19, symbol F); type: in vivo, southern crabgrass (Digitaria ciliaris); details: amount of applied herbicide 194 g/ha
Outline: (§3)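 Pre-emergence style soil spray: seeds under ~1.5 cm sterilized diluvial soil received a uniform coat of emulsion diluted to the predetermined herbicide amount. Greenhouse 25–30° C; readout at week three on previously defined criteria.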

[18] = system: green foxtail; assay: Test Example 4: herbicidal effect by soil treatment (Table 19, symbol G); type: in vivo, green foxtail (Setaria viridis); details: amount of applied herbicide 194 g/ha
Outline: as §3

[19] = system: barnyard grass; assay: Test Example 4: herbicidal effect by soil treatment (Table 19, symbol H); type: in vivo, barnyard grass (Echinochloa crus-galli); details: amount of applied herbicide 194 g/ha
Outline: as §3

[20] = system: wild oat; assay: Test Example 4: herbicidal effect by soil treatment (Table 19, symbol I); type: in vivo, wild oat (Avena fatua); details: amount of applied herbicide 194 g/ha
Outline: as §3

[21] = system: blackgrass; assay: Test Example 4: herbicidal effect by soil treatment (Table 19, symbol J); type: in vivo, blackgrass (Alopecurus myosuroides); details: amount of applied herbicide 194 g/ha
Outline: as §3

[22] = system: Italian ryegrass; assay: Test Example 4: herbicidal effect by soil treatment (Table 19, symbol K); type: in vivo, Italian ryegrass (Lolium multiflorum); details: amount of applied herbicide 194 g/ha
Outline: as §3

[23] = system: windgrass; assay: Test Example 4: herbicidal effect by soil treatment (Table 19, symbol L); type: in vivo, windgrass (Apera spica-venti); details: amount of applied herbicide 194 g/ha
Outline: as §3

[24] = system: velvetleaf; assay: Test Example 4: herbicidal effect by soil treatment (Table 19, symbol M); type: in vivo, velvetleaf (Abutilon theophrasti); details: amount of applied herbicide 194 g/ha
Outline: as §3

[25] = system: redroot pigweed; assay: Test Example 4: herbicidal effect by soil treatment (Table 19, symbol N); type: in vivo, redroot pigweed (Amaranthus retroflexus); details: amount of applied herbicide 194 g/ha
Outline: as §3

[26] = system: lambsquarters; assay: Test Example 4: herbicidal effect by soil treatment (Table 19, symbol O); type: in vivo, lambsquarters (Chenopodium album); details: amount of applied herbicide 194 g/ha
Outline: as §3

[27] = system: chickweed; assay: Test Example 4: herbicidal effect by soil treatment (Table 19, symbol P); type: in vivo, common chickweed (Stellaria media); details: amount of applied herbicide 194 g/ha
Outline: as §3

[28] = system: persian speedwell; assay: Test Example 4: herbicidal effect by soil treatment (Table 19, symbol R); type: in vivo, Persian speedwell (Veronica persica); details: amount of applied herbicide 194 g/ha
Outline: as §3

[29] = 320 g/ha, foliage application after 14-day growth, evaluated three weeks after application
[30] = foliage application, 194 g/ha, three weeks after application

SMILES: COc1ccccc1-c1sc2c(OC)cccc2c1-c1c(O)c(C)nn(C)c1=O [4-039]
- herbicidal effect on barnyard grass (H) [1]: 4 (Herbicidal rate of 70% or more and less than 90%)
- herbicidal effect on Chinese sprangletop (D) [2]: 3 (Herbicidal rate of 40% or more and less than 70%)
- herbicidal effect on rice flat sedge (E) [3]: 3 (Herbicidal rate of 40% or more and less than 70%)
- herbicidal effect on F: southern crabgrass (evaluation grade 0-5) [4, 29]: 3 (Herbicidal rate of 40% or more and less than 70%)
- herbicidal effect on G: green foxtail (evaluation grade 0-5) [5, 29]: 4 (Herbicidal rate of 70% or more and less than 90%)
- herbicidal effect on H: barnyard grass (evaluation grade 0-5) [6, 29]: 3 (Herbicidal rate of 40% or more and less than 70%)
- herbicidal effect on I: wild oat (evaluation grade 0-5) [7, 29]: 3 (Herbicidal rate of 40% or more and less than 70%)
- herbicidal effect on J: blackgrass (evaluation grade 0-5) [8, 29]: 2 (Herbicidal rate of 20% or more and less than 40%)
- herbicidal effect on K: Italian ryegrass (evaluation grade 0-5) [9, 29]: 0 (Herbicidal rate of 5% or less (almost no effect))
- herbicidal effect on L: windgrass (evaluation grade 0-5) [10, 29]: 3 (Herbicidal rate of 40% or more and less than 70%)
- herbicidal effect on M: velvetleaf (evaluation grade 0-5) [11, 29]: 4 (Herbicidal rate of 70% or more and less than 90%)
- herbicidal effect on N: redroot pigweed (evaluation grade 0-5) [12]: 3 (Herbicidal rate of 40% or more and less than 70%)
- herbicidal effect on O: lambsquarters (evaluation grade 0-5) [13, 29]: 2 (Herbicidal rate of 20% or more and less than 40%)
- herbicidal effect on P: chickweed (evaluation grade 0-5) [14]: 2 (Herbicidal rate of 20% or more and less than 40%)
- herbicidal effect on Q: false cleavers (evaluation grade 0-5) [15, 29]: 3 (Herbicidal rate of 40% or more and less than 70%)
- herbicidal effect on R: persian speedwell (evaluation grade 0-5) [16, 29]: 3 (Herbicidal rate of 40% or more and less than 70%)

SMILES: Cc1ccc2oc(-c3ccc(F)cc3)c(-c3c(O)c(C)nn(C)c3=O)c2c1 [9-004]
- F: southern crabgrass, herbicidal effect grade [17]: 2 (Herbicidal rate of 20% or more and less than 40%)
- G: green foxtail, herbicidal effect grade [18]: 2 (Herbicidal rate of 20% or more and less than 40%)
- H: barnyard grass, herbicidal effect grade [19]: 3 (Herbicidal rate of 40% or more and less than 70%)
- I: wild oat, herbicidal effect grade [20]: 0 (Herbicidal rate of 5% or less (almost no effect))
- J: blackgrass, herbicidal effect grade [21]: 0 (Herbicidal rate of 5% or less (almost no effect))
- K: Italian ryegrass, herbicidal effect grade [22]: 4 (Herbicidal rate of 70% or more and less than 90%)
- L: windgrass, herbicidal effect grade [23]: 0 (Herbicidal rate of 5% or less (almost no effect))
- M: velvetleaf, herbicidal effect grade [24]: 0 (Herbicidal rate of 5% or less (almost no effect))
- N: redroot pigweed, herbicidal effect grade [25]: 3 (Herbicidal rate of 40% or more and less than 70%)
- O: lambsquarters, herbicidal effect grade [26]: 5 (Herbicidal rate of 90% or more (almost completely withered))
- P: chickweed, herbicidal effect grade [27]: 3 (Herbicidal rate of 40% or more and less than 70%)
- R: persian speedwell, herbicidal effect grade [28]: 1 (Herbicidal rate of 5% or more and less than 20%)
- herbicidal effect on southern crabgrass (F) [4, 30]: 2 (Herbicidal rate of 20% or more and less than 40%)
- herbicidal effect on green foxtail (G) [5, 30]: 3 (Herbicidal rate of 40% or more and less than 70%)
- herbicidal effect on barnyard grass (H) [6, 30]: 3 (Herbicidal rate of 40% or more and less than 70%)
- herbicidal effect on wild oat (I) [7, 30]: 0 (Herbicidal rate of 5% or less (almost no effect))
- herbicidal effect on blackgrass (J) [8, 30]: 3 (Herbicidal rate of 40% or more and less than 70%)
- herbicidal effect on Italian ryegrass (K) [9, 30]: 5 (Herbicidal rate of 90% or more (almost completely withered))
- herbicidal effect on windgrass (L) [10, 30]: 0 (Herbicidal rate of 5% or less (almost no effect))
- herbicidal effect on velvetleaf (M) [11, 30]: 3 (Herbicidal rate of 40% or more and less than 70%)
- herbicidal effect on lambsquarters (O) [13, 30]: 3 (Herbicidal rate of 40% or more and less than 70%)
- herbicidal effect on false cleavers (Q) [15, 30]: 4 (Herbicidal rate of 70% or more and less than 90%)
- herbicidal effect on persian speedwell (R) [16, 30]: 5 (Herbicidal rate of 90% or more (almost completely withered))

From patent US20230085307A1, “PYRIDAZINONE COMPOUND AND HERBICIDE” (NISSAN CHEMICAL CORPORATION, priority 2019, published 2023)
